{
  "source": "patent US6410253B1",
  "about": "“Cholesterol oxidase” (priority 1990, dated 2002)",
  "type_in_all_cases": "biochemical, Brevibacterium sterolicum ATCC 21387",
  "key": {"cholesterol oxidase II [1]": {"system": "cholesterol oxidase II", "experiment": "Influence of inhibitor on cholesterol oxidase II activity", "conditions": "for Inhibition of the enzyme (in words): cholesterol oxidase II; for Relative Activity (%) of cholesterol oxidase II in the presence of inhibitor: inhibitor 1 mM, activity in the absence of inhibitor = 100", "description": "(§1) Relative activity is shown in Table 2, in the presence of an inhibitor at a concentration of 1 mM, when in the absence of the inhibitor, the activities of cholesterol oxidases I and II are regarded as 100.\n(§2) The amount of enzyme which catalyzes the reaction of decomposing 1 μmole of cholesterol at 37° C. for one minute in the presence of oxygen is defined as one unit. The titer is determined as follows. While shaking, the enzyme acts on cholesterol and 4-aminoantipyrine and phenol are reacted with the formed hydrogen peroxide in the presence of peroxidase to form quinonimine pigment. Absorption of the thus formed quinonimine pigment in the visible region is measured to determine the amount of hydrogen peroxide generated. Thus, the titer of the enzyme is determined. Hereafter specific activity is defined as activity per 1 mg of protein (unit/mg). Furthermore, an amount of enzyme protein is determined by absorbance at 280 nm (1 mg/ml when absorbance is 1).\nIn a test tube, there are charged 1.0 ml of 3 mM cholesterol solution (which is prepared by adding 6 ml of 50 mM cholesterol ethanol solution to 94 ml of 1.05% Triton X-100 solution with stirring, heating the mixture for 10 minutes on a water bath, cooling the mixture in water, adding distilled water to the mixture until the total volume is 100 ml; and is not allowed to be used 30 minutes or longer after preparation) , 0.3 ml of 50 mM sodium bilate solution, 0.3 ml of 0.5 mM potassium-sodium phosphate buffer (pH 6.6), 0.5 ml of 42 mM phenol, 0.5 ml of 2.4 mM 4-aminoantipyrine and 0.2 ml of 115 units/ml horseradish-derived peroxidase. The mixture is agitated. After maintaining at 37° C. for 3 minutes, 0.2 ml of an enzyme solution is added to the mixture. While shaking, the reaction is carried out at 37° C. for 5 to 10 minutes. Then, absorbance is measured at 500 nm (OD 500 nm)"}, "cholesterol oxidase I [2]": {"molecular_target": "T1, cholesterol oxidase I (Brevibacterium sterolicum, UniProt P22637)", "T1 sequence (P22637 46-552)": "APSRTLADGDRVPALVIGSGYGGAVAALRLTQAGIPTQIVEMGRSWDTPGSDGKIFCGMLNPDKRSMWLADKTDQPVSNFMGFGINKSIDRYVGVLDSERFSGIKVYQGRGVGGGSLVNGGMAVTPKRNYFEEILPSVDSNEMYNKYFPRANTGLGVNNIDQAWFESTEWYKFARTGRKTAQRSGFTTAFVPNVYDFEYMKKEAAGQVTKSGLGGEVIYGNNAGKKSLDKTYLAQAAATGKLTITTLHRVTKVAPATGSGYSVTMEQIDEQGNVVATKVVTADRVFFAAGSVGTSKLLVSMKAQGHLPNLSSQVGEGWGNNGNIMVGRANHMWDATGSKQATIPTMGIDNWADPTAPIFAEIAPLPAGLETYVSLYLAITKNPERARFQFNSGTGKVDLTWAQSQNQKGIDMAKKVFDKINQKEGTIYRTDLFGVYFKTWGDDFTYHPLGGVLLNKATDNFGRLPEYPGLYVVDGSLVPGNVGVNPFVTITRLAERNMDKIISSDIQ", "experiment": "Influence of inhibitor on cholesterol oxidase I activity", "conditions": "inhibitor 1 mM; activity in the absence of inhibitor = 100", "description": "as §1\nas §2, with “1). […]” for “1).”"}, "cholesterol oxidase II [3]": {"system": "cholesterol oxidase II", "experiment": "Substrate specificity of cholesterol oxidase II (relative activity on sterol substrates)", "conditions": "for Relative Activity (%) of cholesterol oxidase II on substrate: cholesterol = 100; for Substrate specificity (acts / does not act on): cholesterol oxidase II", "description": "as §2, with “(unit/mg).” for “(unit/mg). Furthermore, an amount of enzyme protein is determined by absorbance at 280 nm (1 mg/ml when absorbance is 1).”\n(§3) The enzyme activity is determined by reacting hydrogen peroxide generated by the enzyme with 4-aminoantipyrine and phenol in the presence of peroxidase and quantitatively determining the formed quinonimine pigment. The reaction is shown by the following equations (1) and (2). [drawing 3]\n(§4) The mixture is agitated. After maintaining at 37° C. for 3 minutes, 0.2 ml of an enzyme solution is added to the mixture. While shaking, the reaction is carried out at 37° C. for 5 to 10 minutes. Then, absorbance is measured at 500 nm (OD 500 nm)"}, "cholesterol oxidase I [4]": {"molecular_target": "T1, cholesterol oxidase I", "experiment": "Substrate specificity of cholesterol oxidase I (relative activity on sterol substrates)", "conditions": "cholesterol = 100", "description": "as §2, with “(unit/mg).” for “(unit/mg). Furthermore, an amount of enzyme protein is determined by absorbance at 280 nm (1 mg/ml when absorbance is 1).”\nas §3, §4"}},
  "data": [
    {"smiles": "O=[N+]([O-])[O-].[Ag+]", "note": "[AgNO3, silver nitrate]", "values": [
      {"measurement": "Inhibition of the enzyme (in words)", "setting": "cholesterol oxidase II [1]", "value": "inhibited"},
      {"measurement": "Relative Activity (%) of cholesterol oxidase II in the presence of inhibitor", "setting": "cholesterol oxidase II [1]", "value": 1.0, "unit": "%"},
      {"measurement": "Relative Activity (%) of cholesterol oxidase I in the presence of inhibitor", "setting": "cholesterol oxidase I [2]", "value": 0, "unit": "%"}
    ]},
    {"smiles": "C[C@]12CC[C@@H](O)C[C@@H]1CC[C@@H]1[C@@H]2CC[C@]2(C)C(=O)CC[C@@H]12", "note": "[Androsterone]", "values": [
      {"measurement": "Relative Activity (%) of cholesterol oxidase II on substrate", "setting": "cholesterol oxidase II [3]", "value": 0, "unit": "%"},
      {"measurement": "Substrate specificity (acts / does not act on)", "setting": "cholesterol oxidase II [3]", "value": "does not act on"},
      {"measurement": "Relative Activity (%) of cholesterol oxidase I on substrate", "setting": "cholesterol oxidase I [4]", "value": 0, "unit": "%"}
    ]},
    {"smiles": "CCCCC/C=C\\C/C=C\\CCCCCCCC(=O)O[C@H]1CC[C@@]2(C)C(=CC[C@H]3[C@@H]4CC[C@H]([C@H](C)CCCC(C)C)[C@@]4(C)CC[C@@H]32)C1", "note": "[Cholesterol linoleate]", "values": [
      {"measurement": "Relative Activity (%) of cholesterol oxidase II on substrate", "setting": "cholesterol oxidase II [3]", "value": 0, "unit": "%"},
      {"measurement": "Substrate specificity (acts / does not act on)", "setting": "cholesterol oxidase II [3]", "value": "does not act on"},
      {"measurement": "Relative Activity (%) of cholesterol oxidase I on substrate", "setting": "cholesterol oxidase I [4]", "value": 0, "unit": "%"}
    ]},
    {"smiles": "CC(C)CCC[C@@H](C)[C@H]1CC[C@H]2[C@@H]3CC=C4C[C@@H](O)CC[C@]4(C)[C@H]3CC[C@]12C", "note": "[Cholesterol, 5-cholesten-3-β-ol]", "values": [
      {"measurement": "Relative Activity (%) of cholesterol oxidase II on substrate", "setting": "cholesterol oxidase II [3]", "value": 100, "unit": "%"},
      {"measurement": "Relative Activity (%) of cholesterol oxidase I on substrate", "setting": "cholesterol oxidase I [4]", "value": 100, "unit": "%"}
    ]},
    {"smiles": "C[C@]12CC[C@H](O)CC1=CC[C@@H]1[C@@H]2CC[C@]2(C)C(=O)CC[C@@H]12", "note": "[Dehydroisoandrosterone]", "values": [
      {"measurement": "Relative Activity (%) of cholesterol oxidase II on substrate", "setting": "cholesterol oxidase II [3]", "value": 13.0, "unit": "%"},
      {"measurement": "Relative Activity (%) of cholesterol oxidase I on substrate", "setting": "cholesterol oxidase I [4]", "value": 41.4, "unit": "%"}
    ]},
    {"smiles": "C[C@]12CC[C@@H]3c4ccc(O)cc4CC[C@H]3[C@@H]1CC[C@@H]2O", "note": "[Estradiol]", "values": [
      {"measurement": "Relative Activity (%) of cholesterol oxidase I on substrate", "setting": "cholesterol oxidase I [4]", "value": 0, "unit": "%"}
    ]},
    {"smiles": "CC(C)=CCC[C@@H](C)[C@H]1CC[C@@]2(C)C3=C(CC[C@]12C)[C@@]1(C)CC[C@H](O)C(C)(C)[C@@H]1CC3", "note": "[Lanosterol]", "values": [
      {"measurement": "Relative Activity (%) of cholesterol oxidase II on substrate", "setting": "cholesterol oxidase II [3]", "value": 0, "unit": "%"},
      {"measurement": "Substrate specificity (acts / does not act on)", "setting": "cholesterol oxidase II [3]", "value": "does not act on"},
      {"measurement": "Relative Activity (%) of cholesterol oxidase I on substrate", "setting": "cholesterol oxidase I [4]", "value": 0, "unit": "%"}
    ]},
    {"smiles": "CC(=O)[C@H]1CC[C@H]2[C@@H]3CC=C4C[C@@H](O)CC[C@]4(C)[C@H]3CC[C@]12C", "note": "[Pregnenolone]", "values": [
      {"measurement": "Relative Activity (%) of cholesterol oxidase II on substrate", "setting": "cholesterol oxidase II [3]", "value": 32.9, "unit": "%"},
      {"measurement": "Relative Activity (%) of cholesterol oxidase I on substrate", "setting": "cholesterol oxidase I [4]", "value": 22.4, "unit": "%"}
    ]},
    {"smiles": "CC[C@H](/C=C/[C@@H](C)[C@H]1CC[C@H]2[C@@H]3CC=C4C[C@@H](O)CC[C@]4(C)[C@H]3CC[C@]12C)C(C)C", "note": "[Stigmasterol]", "values": [
      {"measurement": "Relative Activity (%) of cholesterol oxidase II on substrate", "setting": "cholesterol oxidase II [3]", "value": 64.4, "unit": "%"},
      {"measurement": "Relative Activity (%) of cholesterol oxidase I on substrate", "setting": "cholesterol oxidase I [4]", "value": 10.0, "unit": "%"}
    ]},
    {"smiles": "C=C1CC[C@H](O)C/C1=C/C=C1\\CCC[C@]2(C)[C@@H]([C@H](C)CCCC(C)C)CC[C@@H]12", "note": "[Vitamin D3]", "values": [
      {"measurement": "Relative Activity (%) of cholesterol oxidase II on substrate", "setting": "cholesterol oxidase II [3]", "value": 0, "unit": "%"},
      {"measurement": "Substrate specificity (acts / does not act on)", "setting": "cholesterol oxidase II [3]", "value": "does not act on"},
      {"measurement": "Relative Activity (%) of cholesterol oxidase I on substrate", "setting": "cholesterol oxidase I [4]", "value": 0, "unit": "%"}
    ]},
    {"smiles": "Oc1cccc2cccnc12", "note": "[o-Hydroxyquinoline]", "values": [
      {"measurement": "Inhibition of the enzyme (in words)", "setting": "cholesterol oxidase II [1]", "value": "inhibited"},
      {"measurement": "Relative Activity (%) of cholesterol oxidase II in the presence of inhibitor", "setting": "cholesterol oxidase II [1]", "value": 91.3, "unit": "%"}
    ]},
    {"smiles": "O=S(=O)(O)c1cc[c]([Hg][Cl])cc1", "note": "[p-Chloromercury benzenesulfonate]", "values": [
      {"measurement": "Inhibition of the enzyme (in words)", "setting": "cholesterol oxidase II [1]", "value": "inhibited"},
      {"measurement": "Relative Activity (%) of cholesterol oxidase II in the presence of inhibitor", "setting": "cholesterol oxidase II [1]", "value": 87.0, "unit": "%"},
      {"measurement": "Relative Activity (%) of cholesterol oxidase I in the presence of inhibitor", "setting": "cholesterol oxidase I [2]", "value": 80.0, "unit": "%"}
    ]},
    {"smiles": "CC[C@H](CC[C@@H](C)[C@H]1CC[C@H]2[C@@H]3CC=C4C[C@@H](O)CC[C@]4(C)[C@H]3CC[C@]12C)C(C)C", "note": "[β-Sitosterol]", "values": [
      {"measurement": "Relative Activity (%) of cholesterol oxidase II on substrate", "setting": "cholesterol oxidase II [3]", "value": 82.0, "unit": "%"},
      {"measurement": "Relative Activity (%) of cholesterol oxidase I on substrate", "setting": "cholesterol oxidase I [4]", "value": 19.7, "unit": "%"}
    ]}
  ]
}
